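Cultured in 96-well plates, cells were exposed to test compound for 48 hours across five concentrations. GI50: concentration for 50% inhibition of growth. TGI denotes the concentration required for complete inhibition of growth.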
Assays:
Test in all cases: NCI-60 cell line screen, 48 h
SW-620 colon = test system: SW-620 colon
NCI-H460 lung = test system: NCI-H460 lung
UACC-62 melanoma = test system: UACC-62 melanoma
CCRF-CEM leukemia = test system: CCRF-CEM leukemia
OVCAR-4 ovarian = test system: OVCAR-4 ovarian
A549 NSCLC = test system: A549 NSCLC
DU-145 prostate = test system: DU-145 prostate
HT29 colon = test system: HT29 colon
MDA-MB-435 = test system: MDA-MB-435
UO-31 renal = test system: UO-31 renal
NCI-H522 lung = test system: NCI-H522 lung
RPMI-8226 leukemia = test system: RPMI-8226 leukemia
NCI/ADR-RES ovarian = test system: NCI/ADR-RES ovarian
SNB-19 CNS = test system: SNB-19 CNS
MDA-MB-468 breast = test system: MDA-MB-468 breast
NCI-H226 lung = test system: NCI-H226 lung
SK-MEL-5 melanoma = test system: SK-MEL-5 melanoma
COLO 205 colon = test system: COLO 205 colon
A498 renal = test system: A498 renal
PC-3 prostate = test system: PC-3 prostate
SN12C renal = test system: SN12C renal
KM12 colon = test system: KM12 colon
U251 CNS = test system: U251 CNS
MDA-MB-231 breast = test system: MDA-MB-231 breast
SF-295 CNS = test system: SF-295 CNS
SK-MEL-28 melanoma = test system: SK-MEL-28 melanoma
OVCAR-3 ovarian = test system: OVCAR-3 ovarian
NCI-H23 lung = test system: NCI-H23 lung
SR leukemia = test system: SR leukemia
EKVX NSCLC = test system: EKVX NSCLC
HL-60(TB) leukemia = test system: HL-60(TB) leukemia
M14 melanoma = test system: M14 melanoma
TK-10 renal = test system: TK-10 renal
SK-OV-3 ovarian = test system: SK-OV-3 ovarian
BT-549 breast = test system: BT-549 breast
CAKI-1 renal = test system: CAKI-1 renal
SF-268 CNS = test system: SF-268 CNS
HCC-2998 colon = test system: HCC-2998 colon
K-562 leukemia = test system: K-562 leukemia
HCT-15 colon = test system: HCT-15 colon
OVCAR-5 ovarian = test system: OVCAR-5 ovarian
SK-MEL-2 melanoma = test system: SK-MEL-2 melanoma
HS 578T breast = test system: HS 578T breast
OVCAR-8 ovarian = test system: OVCAR-8 ovarian
HCT-116 colon = test system: HCT-116 colon
IGROV1 ovarian = test system: IGROV1 ovarian
RXF 393 renal = test system: RXF 393 renal
786-0 renal = test system: 786-0 renal
LOX IMVI melanoma = test system: LOX IMVI melanoma
HOP-62 NSCLC = test system: HOP-62 NSCLC
ACHN renal = test system: ACHN renal
MALME-3M melanoma = test system: MALME-3M melanoma
MCF7 breast = test system: MCF7 breast
MOLT-4 leukemia = test system: MOLT-4 leukemia
UACC-257 melanoma = test system: UACC-257 melanoma
SF-539 CNS = test system: SF-539 CNS

## C=C1CC[C@H](C(=C)C)[C@H]2C=C(C)C(=O)C3=C(C(=O)[C@@](C)(O)C3)[C@H]12
SW-620 colon
  GI50: 1380 nM
  TGI: 3110 nM
NCI-H460 lung
  GI50: 1480 nM
  TGI: 4040 nM
UACC-62 melanoma
  GI50: 1230 nM
  TGI: 2480 nM
CCRF-CEM leukemia
  GI50: 2260 nM
  TGI: 5250 nM
OVCAR-4 ovarian
  GI50: 1550 nM
  TGI: 2990 nM
A549 NSCLC
  GI50: 1270 nM
  TGI: 3000 nM
DU-145 prostate
  GI50: 1230 nM
  TGI: 2480 nM
HT29 colon
  GI50: 1070 nM
  TGI: 3230 nM
MDA-MB-435
  GI50: 1550 nM
  TGI: 3140 nM
UO-31 renal
  GI50: 1120 nM
  TGI: 2320 nM
NCI-H522 lung
  GI50: 1180 nM
  TGI: 2530 nM
RPMI-8226 leukemia
  GI50: 1160 nM
  TGI: 3420 nM
NCI/ADR-RES ovarian
  GI50: 1950 nM
  TGI: 5520 nM
SNB-19 CNS
  GI50: 1650 nM
  TGI: 3010 nM
MDA-MB-468 breast
  GI50: 528 nM
  TGI: 1940 nM
NCI-H226 lung
  GI50: 1470 nM
  TGI: 3060 nM
SK-MEL-5 melanoma
  GI50: 1480 nM
  TGI: 2830 nM
COLO 205 colon
  GI50: 1740 nM
  TGI: 3250 nM
A498 renal
  GI50: 3560 nM
  TGI: 8500 nM
PC-3 prostate
  GI50: 1670 nM
  TGI: 3330 nM
SN12C renal
  GI50: 1190 nM
  TGI: 2550 nM
KM12 colon
  GI50: 1460 nM
  TGI: 3270 nM
U251 CNS
  GI50: 1090 nM
  TGI: 2380 nM
MDA-MB-231 breast
  GI50: 1390 nM
  TGI: 2740 nM
SF-295 CNS
  GI50: 1480 nM
  TGI: 2840 nM
SK-MEL-28 melanoma
  GI50: 1630 nM
  TGI: 2990 nM
OVCAR-3 ovarian
  GI50: 1200 nM
  TGI: 2480 nM
NCI-H23 lung
  GI50: 1630 nM
  TGI: 3260 nM
SR leukemia
  GI50: 324 nM
  TGI: 2060 nM
EKVX NSCLC
  GI50: 1700 nM
  TGI: 3300 nM
HL-60(TB) leukemia
  GI50: 853 nM
  TGI: 3760 nM
M14 melanoma
  GI50: 1340 nM
  TGI: 2820 nM
TK-10 renal
  GI50: 1790 nM
  TGI: 3220 nM
SK-OV-3 ovarian
  GI50: 1870 nM
  TGI: 3830 nM
BT-549 breast
  GI50: 1450 nM
  TGI: 2770 nM
CAKI-1 renal
  GI50: 1570 nM
  TGI: 2980 nM
SF-268 CNS
  GI50: 1580 nM
  TGI: 3360 nM
HCC-2998 colon
  GI50: 1280 nM
  TGI: 2540 nM
K-562 leukemia
  GI50: 611 nM
  TGI: 13100 nM
HCT-15 colon
  GI50: 349 nM
  TGI: 1400 nM
OVCAR-5 ovarian
  GI50: 1520 nM
  TGI: 2980 nM
SK-MEL-2 melanoma
  GI50: 1460 nM
  TGI: 2880 nM
HS 578T breast
  GI50: 3030 nM
  TGI: 17700 nM
OVCAR-8 ovarian
  GI50: 1460 nM
  TGI: 3690 nM
HCT-116 colon
  GI50: 801 nM
  TGI: 2070 nM
IGROV1 ovarian
  GI50: 1280 nM
  TGI: 2880 nM
RXF 393 renal
  GI50: 1510 nM
  TGI: 2990 nM
786-0 renal
  GI50: 1750 nM
  TGI: 3170 nM
LOX IMVI melanoma
  GI50: 369 nM
  TGI: 1500 nM
HOP-62 NSCLC
  GI50: 1760 nM
  TGI: 3270 nM
ACHN renal
  GI50: 1480 nM
  TGI: 2800 nM
MALME-3M melanoma
  GI50: 1470 nM
  TGI: 2880 nM
MCF7 breast
  GI50: 639 nM
  TGI: 2020 nM
MOLT-4 leukemia
  GI50: 1210 nM
  TGI: 3750 nM
UACC-257 melanoma
  GI50: 1350 nM
  TGI: 2760 nM
SF-539 CNS
  GI50: 1410 nM
  TGI: 2710 nM
